Assay results taken from patent US4146718A, “Alkyl 5,6-dichloro-3,4-dihydro-2(1H)-iminoquinazoline-3-acetate hydrohalides” (Bristol-Myers Company, priority 1978, dated 1979).
In brackets after ≈: the same amount, converted by molar mass. Structures can show the parent of a compound that is named as a salt. Where two headings read alike, the source gives them in different places.

Key:
[1] = test system: Rabbit - PRP (ADP- and collagen-induced platelet aggregation); assay: Aggregometry - Rabbit - PRP, Ex Vivo; assay type: in vivo; settings: Oryctolagus cuniculus, ip
Description: (§1) As stated above, the compound of Formula I is a known blood platelet antiaggregative agent. Table I compares the activities of the compound of Formula I and other known blood platelet antiaggregative agents in various antiaggregative and antithrombosis tests. Although the compounds of Formula III are primarily intended as intermediates in the preparation of the compound of Formula I, they themselves have blood platelet antiaggregative properties. For comparison purposes, one of the compounds of Formula III (R^1 = ethyl, X = bromo) is included in Table I. The tests referred to in Table I were conducted as set out in detail in J. S. Fleming, et al., Journal of Pharmacology and Experimental Therapeutics, 194, 435 (1975).
(§2) Antiaggregative and Antithrombosis Tests in Various In Vitro, Ex Vivo
(§3) Aggregometry - Rabbit - PRP
(§4) (μg/ml) (mg/kp ip) Biolaser
(§5) PRP = Platelet-rich plasma
(§6) ADP = Adenosine diphosphate

Biolaser Thrombosis = assay: In Vivo Animal Model: Rabbit Biolaser Thrombosis; settings: Oryctolagus cuniculus, read-out: ED50, Rabbit Biolaser Thrombosis
Electrical Thrombosis = assay: In Vivo Animal Model: Dog Electrical Thrombosis; settings: Canis lupus familiaris, read-out: ED50, Dog Electrical Thrombosis
[2] = test system: Rabbit - PRP (ADP- and collagen-induced platelet aggregation); assay: Aggregometry - Rabbit - PRP, In Vitro; assay type: cell-based; settings: Oryctolagus cuniculus
Description: as §1, §2, §3, §4, §5, §6

Endotoxin Shock = assay: In Vivo Animal Model: Rat Endotoxin Shock; settings: po
Description: as §1
In Vivo Animal Models ED50's (mg/kg)

[3] = ADP, read-out: Ex Vivo ED50, ADP
[4] = Collagen, read-out: Ex Vivo ED50, Collagen
[5] = ADP, read-out: In Vitro EC50, ADP
[6] = Collagen, read-out: In Vitro EC50, Collagen

Structure (SMILES)	ED50 [1, 3] [mg/kg]	ED50 [1, 4] [mg/kg]	ED50 (Biolaser Thrombosis; rabbit, po) [mg/kg]	ED50 (Electrical Thrombosis; dog, po) [mg/kg]	EC50 [2, 5] [µg/mL]	EC50 [2, 6] [µg/mL]	ED50 (Endotoxin Shock) [mg/kg]	ED50 (Biolaser Thrombosis; rabbit, iv) [mg/kg]	ED50 (Electrical Thrombosis; dog, ip) [mg/kg]	ED50 (Biolaser Thrombosis; iv) [mg/kg]	ED50 (Electrical Thrombosis; po) [mg/kg]
O=C1CN2Cc3c(ccc(Cl)c3Cl)N=C2N1 [Compound I, 6,7-dichloro-1,5-dihydroimidazo[2,1-b]quinazolin-2(3H)-one]	1.25	1	2.5	1.5	0.3 (≈ 1.17 µM)	0.08 (≈ 0.312 µM)	25	–	–	–	–
OCCN(CCO)c1nc(N2CCCCC2)c2nc(N(CCO)CCO)nc(N3CCCCC3)c2n1 [Dipyridamole]	> 100	> 100	–	–	> 512	–	> 256	> 60	> 35	–	–
O=C1C(CC[S+]([O-])c2ccccc2)C(=O)N(c2ccccc2)N1c1ccccc1 (centres unmarked) [Sulfinpyrazone]	> 100	3	–	> 100	> 512	62 (≈ 153 µM)	> 128	> 60	–	–	–
CC(=O)Oc1ccccc1C(=O)O [Aspirin]	> 100	3	–	–	> 512	7 (≈ 38.9 µM)	> 256	–	–	> 60	50
CCOC(=O)CN1Cc2c(ccc(Cl)c2Cl)NC1=N [Compound III, Ethyl 5,6-Dichloro-3,4-dihydro-2(1H)-iminoquinazoline-3-acetate Hydrobromide]	–	–	–	–	9	3.6	–	–	–	–	–
